The source of these data is patent publication US11939398B2, “Modified peptides for use in treating neurodegenerative disorders” (Neuro-Bio Ltd, priority 2016, dated 2024).

Series [1] relates to PC12 cells. As to the kind of experiment: AChE activity assay (Ellman reagent) in PC12 cells treated with T30. The format is cell-based. Particulars: combined with T30 (1 μM). On the procedure:
AChE activity was measured using the Ellman reagent that measures the presence of thiol groups as a result of AChE activity. In the case of the G4 experiment, AChE (G4) activity was tested alone and also together with either NBP14 or Tri peptides. PC12 cells were plated the day before the experiment as for the cell viability assay. Cells were treated with T30 (1 μM) alone or combined with NBP14 or Tri peptide (0.5 μM). After treatment, supernatant (perfusate) of each treatment was collected and 25 μL from each condition were added to a new flat bottomed 96 well plate followed by the addition of 175 μl of Ellman reagent (Solution A: KH2PO4 139 mM and K2HPO4 79.66 mM, pH 7.0; solution B (substrate): Acetylthiocholine Iodide 11.5 mM; Solution C (Reagent): 5,5′-dithiobis(2-nitrobenzoic acid) 8 mM and NaHCO3 15 mM). The Ellman reagent was prepared as a mixture of the 3 solutions in a ratio 33(A):3(B):4(C). Absorbance measurements were taken for an interval of 60 minutes across experiments at 405 nm in a Vmax plate reader (Molecular devices, Wokingham, UK).
In each of the different cell techniques, the statistics analysis was performed with the average of the percentage values of 3 or more experiments. […]

The nature of series [2]: stability / degradation in rat blood. The format is in vitro ADME. As to conditions: for stability in blood / degradants detected: rat blood diluted with PBS; for degradants detected: UHPLC-TOF MS. On the procedure:
(§1) Test compounds were spiked at 10 μg/ml into either PBS or blood (Male Wistar rat or Human) diluted with PBS, and a series of samples taken according to the following scheme:
(§2) Procaine, a compound known to be unstable in blood, was included as a positive control (ran with 5-fold diluted blood only). The sampling procedure was to add an aliquot to ice-cold acetonitrile, centrifuge, and store the supernatant on dry ice until analysis. Analysis by UHPLC-TOF mass spectrometry using electrospray ionisation was performed on the same day as the incubations were performed.

Series [3] has as its system PC12 cells. In words: Calcium fluorometry (Fluo-8, PNU282987-induced calcium increase) in PC12 cells. The format is cell-based. As to conditions: in conjunction with T30, PC12 cells. On the procedure: PC12 cells were plated in 200 μl of Dulbecco's Modified Eagle's medium (DMEM) plus 2 mM of L-glutamine medium the day before the experiment in 96 well plates. On the day of the experiment, the Fluo-8 solution (Abcam) was prepared as described by the provider by adding 20 μl of Fluo-8 in the assay buffer that contains 9 ml of Hank's Balanced Salt Solution (HBSS) and 1 ml of pluronic F127 Plus. Subsequently, 100 μl of growth medium was removed and 100 μl of Fluo-8 solution were added. Treatments with T30 in conjunction with NBP14 or Tri peptides were added and incubated for 30 minutes in the incubator and 30 minutes room temperature. After 1 h, the plate was placed in the fluorescence plate reader (Fluostar, Optima, BMG Labtech, Ortenberg, Germany). Before reading the fluorescence, PNU282987 1 μM, an alpha7 specific agonist of the nicotinic receptors, was prepared and placed in the Fluostar injector. For each well, the reading was formed by a basal fluorescence reading followed by PNU282987 injection that induced an increase of calcium via nicotinic receptors.
In each of the different cell techniques, the statistics analysis was performed with the average of the percentage values of 3 or more experiments. Comparisons between multiple treatment groups and the same control were performed by one-way analysis of variance (ANOVA) and Tukey's post-hoc tests using GraphPAD Instat (GraphPAD software, San Diego, California). Statistical significance was taken at a p value<0.05.

The nature of series [4]: stability / degradation in human blood. The format is in vitro ADME. On the procedure:
as §1, §2

In series [5] the test system is rat basal forebrain slices. In words: voltage-sensitive dye imaging (VSDI) on brain slices, Example 5. The format is cell-based. On the procedure:
Male Wistar rats (14 days old) were anaesthetised using isoflurane (˜15 ml, 100% w/w). Isoflurane was applied to the cotton bed at the bottom of an anaesthetic chamber (glass box 20×15×15 cm) where rats were then placed for approximately 45 s until complete anaesthesia was reached. The hind paw of each anaesthetised rat was pinched to check for the appropriate depth of anaesthesia. Upon confirmation of anaesthesia, rats were quickly decapitated, with the brain being quickly removed and immersed in ice cold oxygenated ‘slicing’ artificial cerebrospinal fluid (aCSF in mmol: 120 NaCl, 5 KCL, 20 NaHCO3, 2.4 CaCl2 2 MgSO4, 1.2 KH2PO4, 10 glucose, 6.7 HEPES salt and 3.3 HEPES acid; pH=7.1). Coronal slices (400 μm thick) were then taken from a block of brain containing the basal forebrain, namely the MS-dBB complex (between +9.20 and +9.48 mm Interaural and +0.48 and +0.2 mm Bregma, FIG. 4A) and the somatosensory barrel field cortex (SiBF, between +8.08 and +7.20 mm Interaural and −0.92 mm and −1.80 mm Bregma) (Paxinos and Watson, 1998) using a Vibratome (Leica VTi000S).
Slices were then transferred to a bubbler pot containing oxygenated aCSF at room temperature (recording aCSF in mmol: 124 NaCl, 5 KCL, 20 NaHCO3, 2.4 CaCl2 2 MgSO4, 1.3 KH2PO4, 10 glucose; pH=7.4) which was identical to that used in VSDI (voltage sensitive dye imaging) recording. Slices were then left for approximately 1-1.5 hours before preparing them for VSD staining.
Slices were placed in a dark, high humidity chamber filled with aCSF bubbled with 95% O2, 5% CO2. Once there, the dye solution (4% 0.2 mM styryl dye pyridinium 4-[2-[6-(dibutylamino)-2-napthalenyl]-ethenyl]-1-(3-sulfopropyl)hydroxide (Di-4-NEPPS), Invitrogen, Paisley, UK in 48% aCSF, 48% foetal bovine serum, 3.5% DMSO and 0.4% cremophore EL) (Tominaga et al., 2000) was applied to the slices for 20-25 minutes before being transferred back to a bubbler pot containing oxygenated aCSF kept at room temperature for 30 minutes.
When starting the VSDI recordings, slices were placed in the recording bath on a small piece of filter paper to allow the flow of oxygenated aCSF on the underside of the slice and in order to keep it alive. The slice was then weighed down by a home-made plastic grid that was placed on top of the slice. […] For the acquisition of VSD data, 2 dimensional images, equivalent to 88×60 pixels, were recorded using the MiCamo2 High Resolution camera (Brain Vision, Japan) with BV_Analyze imaging software. […] Light was generated using an Osram halogen xenophot 64634 HLX EFR Display/Optic lamp and was filtered to emit green (530±10 nm) light using a MHF-G150LR (Moritex Corporation) coupled to the MiCamo2 High resolution imaging system and filtered the emitted fluorescence through a >590 nm high pass filter. […]

Series [6] deals with rat basal forebrain slices. As to the kind of experiment: voltage-sensitive dye imaging (VSDI) on brain slices, Example 7. The format is cell-based. On the procedure: Brain slices were prepared as in Example 5.
Slices were placed in a dark, high humidity chamber filled with aCSF bubbling with 95% O2e5% CO2. Once there, the dye solution (4% 0.2 mM styryl dye pyridinium 4-[2-[6-(dibutylamino)-2-aphthalenyl]-ethenyl]-1-(3-sulfopropyl)hydroxide (Di-4-ANEPPS, Invitrogen, Paisley, UK) (Tominaga et al., 2000) in aCSF 48%, fetal bovine serum 48%, DMSO 3.5% and cremophore EL 0.4%) was applied to the slices for 20-25 min before being transferred to an aCSF bubbler pot (room temperature, 22 C+/−1.5 C) for 1 h to wash off excess dye and recover.
When starting VSD recordings, slices were placed in the recording bath on a small piece of filter paper to keep slice alive and was weighed down appropriately using a home-made plastic grid placed atop the slice. The perfusing bath solution was heated to 30+/−1 C by a stage heater. A concentric bipolar stimulating electrode (FHC, Maine, US) was placed in the ventral diagonal band of the basal forebrain with stimulation being set at 30 V. For acquiring of VSD data, 16-bit images were recorded with 1 ms resolution with a digital camera (Brain Vision MiCAM Ultima R3-V20 Master) with Ultima 2004/08 imaging software (Brain Vision) coupled to Spike 2 V6.0 (CED Ltd, Cambridge, UK) which was used to trigger stimulations with respect to appropriate ISI. […]

Where [7] appears, read: human blood diluted with PBS, 10 μg/ml, up to 60 min.

Entries after “also recorded” stand apart in the source; their conditions may differ. Where a SMILES comes first, the peptide text is derived from it. [ ]: non-standard residue; d: D form. Bpa = N[C@@H](Cc1ccc(C(=O)c2ccccc2)cc1)C(=O)O; Phe(4-NH2) = Nc1ccc(C[C@H](N)C(=O)O)cc1; hArg = N=C(N)NCCCC[C@H](N)C(=O)O

As to `CSCC[C@@H]1NC(=O)[C@H](Cc2ccc(O)cc2)NC(=O)[C@H](CO)NC(=O)[C@H](CO)NC(=O)[C@H](Cc2c[nH]c3ccccc23)NC(=O)[C@H](CCCNC(=N)N)NC(=O)[C@H](Cc2c[nH]cn2)NC(=O)[C@H](Cc2ccccc2)NC(=O)[C@H](CCC(=O)O)NC(=O)[C@H](C)NC(=O)[C@H](CCCCN)NC(=O)[C@H](Cc2c[nH]c3ccccc23)NC(=O)[C@H](Cc2c[nH]cn2)NC(=O)[C@H](C(C)C)NC1=O` [NBP14, reference compound] (cyclo(AEFHRWSSYMVHWK)), the “protection against T30-induced AChE activity” value in the series on PC12 cells [1] is reported as “protects against these toxic effects”. Also, the stability in blood result is on record as “good stability” in series [2] (10 μg/ml, up to 60 min) and “good stability” in series [4] (setting [7]). Further, the degradants detected entry is on record as “no degradants were detected” in series [2] and “no degradants were detected” in series [4] (human blood diluted with PBS, UHPLC-TOF MS). Also, the “protection against T30-induced calcium influx” value in the series with PC12 cells [3] is listed as “protects against these toxic effects”. In addition, the “blocking of T30-induced deviations from baseline (VSDI)” value in series [5] (4 μM co-perfused with T30 (2 uM)) is given as “totally block the T30-induced effects”. In series [5] (4 μM in perfusate, no T30), the “change in magnitude (summed fluorescence) of evoked responses, compound alone” value is listed as “small, non-significant alterations”.

`CCN(CC)CCOC(=O)c1ccc(N)cc1` [Procaine, reference compound]: the turnover in series [2] (5-fold diluted rat blood, 10 μg/ml, up to 60 min) stood at 60%; in series [4] (5-fold diluted human blood, 10 μg/ml, up to 60 min), 100%.

Regarding `CC(=O)N[C@@H](Cc1ccc(C(=O)c2ccccc2)cc1)C(=O)N[C@@H](CCCCNC(=N)N)C(=O)N[C@@H](Cc1ccc(N)cc1)C(N)=O` [Tri04, 4-((S)-2-((S)-2-((S)-2-acetamido-3-(4-benzoylphenyl)propanamido)-6-((amino(iminio)methyl)amino)hexanamido)-3-amino-3-oxopropyl)benzenaminium] (Ac-[Bpa]-[hArg]-[Phe(4-NH2)]-NH2), the stability in blood entry in series [2] (10 μg/ml, up to 60 min) is reported as “better stability than TRI-02”; in series [4] (setting [7]) it was “better stability than TRI-02”. For the same compound, the degradants detected entry in series [2] is “some degradants were still detected”. For the same compound, the “protection against T30-induced calcium influx” value in the series with PC12 cells [3] was “protects the toxic effects of T30 by reducing calcium influx”. Also, the “effect on T30-induced inhibition of basal forebrain activity” value was “significant effect on basal forebrain population activity; also recorded: reversal of the inhibitory effect of T30; also recorded: increase in network activity; also recorded: protective role of Tri04 over T30” in series [6] (2 μM Tri04 co-perfused with 2 μM T30, n=29) and “totally block the T30-induced effects; also recorded: recapitulates results previously seen with the application of 4 μM NBP14; also recorded: significant effect reversing T30 activity” in series [6] (4 μM Tri04 co-perfused with 2 μM T30, n=20).
